Measurements: PMC9435431, “Novel chemical entities inhibiting Mycobacterium tuberculosis growth identified by phenotypic high-throughput screening” (Scientific Reports, 2022)
In brackets after ≈: the same amount, converted by molar mass. Like-named read-outs stand apart in the source and are kept apart here.

Legend:
[1] = tested on: wild-type M. tuberculosis; assay: microbe, parasite or virus in culture; assay type: cell-based, Mycobacterium tuberculosis
in vitro = in vitro ADME, human; conditions: for microsomal clearance / stability (in words): human microsomes; for CLint scaled at 0.5 µM: human, microsomes, pH 7.4, human Clint
Method: Compounds (0.5 µM) were incubated with 0.25 mg/mL liver microsomal proteins at pH 7.4 at 37 °C. Reactions were initiated with […] and samples taken at 0, 5, 10, 15, 20 and 30 min. The reaction was stopped by addition of 95% ACN/5% MeOH containing an internal standard. Samples were combined in compound groups of six pre-sorted by mono molecular weight and analyzed by LC/MS/MS. The peak area ratios (analyte peak area/IS peak area) were converted to % remaining using the area ratio at time 0 as 100%. The. half-life (T ½) and intrinsic clearance (mCLint) were calculated.

[2] = Mycobacterium tuberculosis, 120 h, read-out: MIC
[3] = Mycobacterium tuberculosis, read-out: MIC

Row | Structure (SMILES) | MIC [1, 2] [µM] | MIC [1, 3] [µM] | anti-tubercular activity (in words) [1] | other results
1 | O=C(O)C(F)(F)F.c1ccc2c(C3CCN(CC4CCCCC4)CC3)cccc2c1 [Molecule 4PP-31, 1-(Cyclohexylmethyl)-4-(1-naphthyl)piperidine; 2,2,2-trifluoroacetic acid] | 2.7 ± 2.4 | 2.7 | – | IC90 ([1]; Mycobacterium tuberculosis): 2.7 µM
2 | C1=CC2(CCN(CC3CCCCC3)CC2)c2ccccc21 [Molecule 4PP-35, 1'-(Cyclohexylmethyl)spiro[indene-1,4'-piperidine]; 2,2,2-trifluoroacetic acid] | 6.3 ± 0.1 (≈ 1.77 µg/mL) | 6.3 (≈ 1.77 µg/mL) | – | –
3 | CC(=O)C1(c2ccccc2)CCN(CC2CCCCC2)CC1 [Molecule 4PP-36, 1-[1-(Cyclohexylmethyl)-4-phenyl-4-piperidyl]ethanone] | > 20 | – | – | –
4 | N#CC1(c2ccccc2)CCN(CC2CCCCC2)CC1 [Molecule 4PP-37, 1-(Cyclohexylmethyl)-4-phenyl-piperidine-4-carbonitrile; 2,2,2-trifluoroacetic acid] | > 20 | – | – | –
5 | CC(=O)NCC1(c2ccccc2)CCN(CC2CCCCC2)CC1 [Molecule 4PP-38, N-[[1-(Cyclohexylmethyl)-4-phenyl-4-piperidyl]methyl]acetamide; 2,2,2-trifluoroacetic acid] | > 20 | – | – | –
6 | COC(=O)C1(c2ccccc2)CCN(CC2CCCCC2)CC1 [Molecule 4PP-39, Methyl 1-(cyclohexylmethyl)-4-phenyl-piperidine-4-carboxylate; 2,2,2-trifluoroacetic acid] | > 20 | – | – | –
7 | OCC1(c2ccccc2)CCN(CC2CCCCC2)CC1 [Molecule 4PP-40, [1-(Cyclohexylmethyl)-4-phenyl-4-piperidyl]methanol; 2,2,2-trifluoroacetic acid] | > 20 | – | – | –
8 | c1ccc(C2CCN(Cc3ccc4c(c3)OCO4)CC2)cc1 [Molecule 4PP-42, 1-(Benzo[d][1,3]dioxol-5-ylmethyl)-4-phenylpiperidine] | > 20 | – | inactive | –
9 | CC(C)(C)CC(C)(C)N1CCC(c2ccc(C(C)(C)C)cc2)CC1 [Molecule 4PP-43, 4-(4-t-Butyl-phenyl)-1-(1,1,3,3-tetramethyl-butyl)-piperidine] | 5.9 (≈ 1.94 µg/mL) | – | – | MIC [1]: 5.2 ± 1.9 µM (≈ 1.71 µg/mL)
10 | CC(C)(C)CC(C)(C)N1CCC(c2ccccc2)CC1 [Molecule 4PP-44, 4-Phenyl-1-(1,1,3,3-tetramethyl-butyl)-piperidine] | 5.2 ± 5 (≈ 1.42 µg/mL) | 5.2 (≈ 1.42 µg/mL) | – | IC90 ([1]; Mycobacterium tuberculosis): 5.2 µM
11 | CC(C)(C)CC(C)(C)N1CC=C(c2c[nH]c3ncccc23)CC1 [Molecule 4PP-45, 3-(1-(2,4,4-Trimethylpentan-2-yl)-1,2,3,6-tetrahydropyridin-4-yl)-1H-pyrrolo[2,3-b]pyridine] | > 20 | – | inactive | –
12 | CC(C)(C)CC(C)(C)N1CCC(c2c[nH]c3ncccc23)CC1 [Molecule 4PP-46, 3-(1-(2,4,4-Trimethylpentan-2-yl)piperidin-4-yl)-1H-pyrrolo[2,3-b]pyridine] | > 20 | – | inactive | –
13 | CC(C)(C)CC(C)(C)N1CC=C(c2c[nH]c3ccccc23)CC1 [Molecule 4PP-47, 3-(1-(2,4,4-Trimethylpentan-2-yl)-1,2,3,6-tetrahydropyridin-4-yl)-1H-indole] | 9.6 ± 2.2 (≈ 2.98 µg/mL) | 9.6 (≈ 2.98 µg/mL) | – | –
14 | CC(C)(C)CC(C)(C)N1CCC(c2c[nH]c3ccccc23)CC1 [Molecule 4PP-48, 3-(1-(2,4,4-Trimethylpentan-2-yl)piperidin-4-yl)-1H-indole] | 1.6 (≈ 0.5 µg/mL) | 1.6 (≈ 0.5 µg/mL) | – | –
15 | CC(C)(C)CC(C)(C)N1CCN(c2ccc(C(C)(C)C)cc2)CC1 [Molecule 4PP-49, 1-(4-(t-Butyl)phenyl)-4-(2,4,4-trimethylpentan-2-yl)piperazine] | > 5 | – | loss in activity | –
16 | CC(C)(C)CC(C)(C)N1CCN(c2ccccc2)CC1 [Molecule 4PP-50, 1-Phenyl-4-(2,4,4-trimethylpentan-2-yl)piperazine] | > 10 | – | loss in activity | –
17 | FC1CN(CC2CCCCC2)CCC1c1ccccc1.O=C(O)C(F)(F)F (stereo not shown) [Molecule 4PP-51, 1-(Cyclohexylmethyl)-3-fluoro-4-phenyl-piperidine; 2,2,2-trifluoroacetic acid] | > 20 | – | not tolerated | –
18 | FC1CN(CC2CCCCC2)CCC1c1ccc(Cl)cc1.O=C(O)C(F)(F)F (stereo not shown) [Molecule 4PP-52, 4-(4-Chlorophenyl)-1-(cyclohexylmethyl)-3-fluoro-piperidine; 2,2,2-trifluoroacetic acid] | > 20 | – | not tolerated | –
19 | COc1ccc(C2CCN(CC3CCCCC3)CC2F)cc1.O=C(O)C(F)(F)F (stereo not shown) [Molecule 4PP-53, 1-(Cyclohexylmethyl)-3-fluoro-4-(4-methoxyphenyl)piperidine; 2,2,2-trifluoroacetic acid] | > 20 | – | not tolerated | –
20 | COc1cc(CCNC(=O)C2(c3ccccc3)CCC2)ccc1O [PCB-3, N-(4-hydroxy-3-methoxyphenethyl)-1-phenylcyclobutane-1-carboxamide] | > 20 | > 20 | – | microsomal clearance / stability (in words) (in vitro): clearance was improved; CLint scaled at 0.5 µM (in vitro): 208 mL/min/kg
21 | O=C(NCCc1ccc2c(c1)OCO2)C1(c2ccccc2)CCC1 [PCB-4, N-(2-(benzo[d][1,3]dioxol-5-yl)ethyl)-1-phenylcyclobutane-1-carboxamide] | 12 ± 2.6 (≈ 3.88 µg/mL) | – | retained anti-tubercular activity | microsomal clearance / stability (in words) (in vitro): intermediate clearance; CLint scaled at 0.5 µM (in vitro): 868 mL/min/kg
22 | O=C(NCCc1cccc(Br)c1)C1(c2ccccc2)CCC1 [PCB-5, N-(3-bromophenethyl)-1-phenylcyclobutane-1-carboxamide] | 4.9 ± 1.7 (≈ 1.76 µg/mL) | 4.9 (≈ 1.76 µg/mL) | – | CLint scaled at 0.5 µM (in vitro): 3930 mL/min/kg
23 | O=C(NCCc1ccc(Br)cc1)C1(c2ccccc2)CCC1 [PCB-6, N-(4-bromophenethyl)-1-phenylcyclobutane-1-carboxamide] | 5.4 ± 0.3 (≈ 1.93 µg/mL) | 5.4 (≈ 1.93 µg/mL) | – | CLint scaled at 0.5 µM (in vitro): 593 mL/min/kg
24 | O=C(NCCc1cccc(C(F)(F)F)c1)C1(c2ccccc2)CCC1 [PCB-7, 1-phenyl-N-(3-(trifluoromethyl)phenethyl)cyclobutane-1-carboxamide] | 3.7 ± 2.7 (≈ 1.29 µg/mL) | 3.7 (≈ 1.29 µg/mL) | – | microsomal clearance / stability (in words) (in vitro): increased clearance; CLint scaled at 0.5 µM (in vitro): 4500 mL/min/kg
25 | O=C(NCCc1cc(Br)ccn1)C1(c2ccccc2)CCC1 [PCB-8, N-(2-(4-bromopyridin-2-yl)ethyl)-1-phenylcyclobutane-1-carboxamide] | > 20 | > 20 | – | microsomal clearance / stability (in words) (in vitro): improved clearance; CLint scaled at 0.5 µM (in vitro): 1160 mL/min/kg
26 | O=C(N[C@H]1CCc2ccc(Br)cc2C1)C1(c2ccccc2)CCC1 [PCB-9, (S)-N-(7-bromo-1,2,3,4-tetrahydronaphthalen-2-yl)-1-phenylcyclobutane-1-carboxamide] | 6.9 ± 2.9 (≈ 2.65 µg/mL) | 6.9 (≈ 2.65 µg/mL) | – | microsomal clearance / stability (in words) (in vitro): increased microsomal clearance; CLint scaled at 0.5 µM (in vitro): 4550 mL/min/kg
27 | O=C(Nc1ncc2c(Br)cccc2n1)C1(c2ccccc2)CCC1 [PCB-10, N-(5-bromoquinazolin-2-yl)-1-phenylcyclobutane-1-carboxamide] | 9.3 ± 1 (≈ 3.56 µg/mL) | 9.3 (≈ 3.56 µg/mL) | – | microsomal clearance / stability (in words) (in vitro): reasonable clearance; CLint scaled at 0.5 µM (in vitro): 240 mL/min/kg
28 | COc1ccc(-c2cc(N)nc(-n3nc(C)cc3C)n2)cc1 [PZP-1] | – | – | – | IC90 ([1]; Mycobacterium tuberculosis): 5.2 µM
29 | Cc1cc(C)n(-c2nc(N)cc(-c3cccc(F)c3)n2)n1 [PZP-2] | – | – | – | IC90 ([1]; Mycobacterium tuberculosis): 7.4 µM
